Laboratory results: ChEMBL document CHEMBL4507304, “Data for DCP probe TP-021” (2021)

Legend:
[1] = test system: Tyrosine-protein kinase ABL1 (Homo sapiens), P00519 [Y253F]; details: Compound concentration 1000.0 nM
[2] = target: Tyrosine-protein kinase ABL2 (Homo sapiens) (UniProt P42684); details: Compound concentration 1000.0 nM
[3] = target: RAC-gamma serine/threonine-protein kinase (Homo sapiens) (UniProt Q9Y243); details: Compound concentration 1000.0 nM
[4] = target: NUAK family SNF1-like kinase 1 (Homo sapiens) (UniProt O60285); details: Compound concentration 1000.0 nM
[5] = target: Cytoplasmic tyrosine-protein kinase BMX (Homo sapiens) (UniProt P51813); details: Compound concentration 1000.0 nM
[6] = target: Serine/threonine-protein kinase BRSK2 (Homo sapiens) (UniProt Q8IWQ3); details: Compound concentration 1000.0 nM
[7] = target: Death-associated protein kinase 1 (Homo sapiens) (UniProt P53355); details: Compound concentration 1000.0 nM
[8] = test system: Epidermal growth factor receptor (Homo sapiens), P00533 [UNDEFINED MUTATION]; details: Compound concentration 1000.0 nM
Sequence of Epidermal growth factor receptor (Homo sapiens), P00533 [UNDEFINED MUTATION] (P00533 whole entry, looked up, change not shown): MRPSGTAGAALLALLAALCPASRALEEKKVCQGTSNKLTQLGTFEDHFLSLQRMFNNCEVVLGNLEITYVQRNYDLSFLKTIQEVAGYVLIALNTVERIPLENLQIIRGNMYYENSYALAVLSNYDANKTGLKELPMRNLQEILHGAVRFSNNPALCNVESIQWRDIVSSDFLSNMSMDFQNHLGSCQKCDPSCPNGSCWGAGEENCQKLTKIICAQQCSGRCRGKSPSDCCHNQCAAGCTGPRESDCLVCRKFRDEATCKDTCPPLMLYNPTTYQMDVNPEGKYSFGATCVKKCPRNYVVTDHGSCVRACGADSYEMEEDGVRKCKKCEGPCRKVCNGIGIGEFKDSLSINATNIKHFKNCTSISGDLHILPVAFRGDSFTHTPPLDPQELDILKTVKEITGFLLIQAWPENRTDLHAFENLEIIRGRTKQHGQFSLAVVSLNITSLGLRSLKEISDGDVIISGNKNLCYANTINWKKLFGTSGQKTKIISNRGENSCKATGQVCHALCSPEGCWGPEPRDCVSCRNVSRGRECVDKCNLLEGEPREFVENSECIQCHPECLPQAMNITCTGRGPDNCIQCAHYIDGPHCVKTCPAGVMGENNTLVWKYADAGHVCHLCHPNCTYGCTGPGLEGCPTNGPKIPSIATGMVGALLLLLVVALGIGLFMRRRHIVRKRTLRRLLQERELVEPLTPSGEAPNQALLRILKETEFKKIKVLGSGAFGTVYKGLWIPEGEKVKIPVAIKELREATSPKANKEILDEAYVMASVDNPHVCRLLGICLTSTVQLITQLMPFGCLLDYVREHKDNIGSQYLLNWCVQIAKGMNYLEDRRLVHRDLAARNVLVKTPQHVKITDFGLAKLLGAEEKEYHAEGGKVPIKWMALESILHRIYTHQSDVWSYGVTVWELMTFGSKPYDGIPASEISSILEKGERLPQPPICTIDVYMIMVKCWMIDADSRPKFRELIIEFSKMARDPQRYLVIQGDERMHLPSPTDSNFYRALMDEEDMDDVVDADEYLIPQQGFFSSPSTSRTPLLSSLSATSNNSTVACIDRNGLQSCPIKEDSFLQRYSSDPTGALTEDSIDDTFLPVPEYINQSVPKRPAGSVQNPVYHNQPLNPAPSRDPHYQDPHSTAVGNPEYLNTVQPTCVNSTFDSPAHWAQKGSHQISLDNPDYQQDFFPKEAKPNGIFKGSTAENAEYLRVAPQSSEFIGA

[9] = test system: Epidermal growth factor receptor (Homo sapiens), P00533 [UNDEFINED MUTATION]; details: Compound concentration 1000.0 nM; remark: listed apart in the source
[10] = test system: Epidermal growth factor receptor (Homo sapiens), P00533 [UNDEFINED MUTATION]; details: Compound concentration 1000.0 nM; remark: listed apart in the source
[11] = target: Ephrin type-A receptor 3 (Homo sapiens) (UniProt P29320); details: Compound concentration 1000.0 nM
[12] = target: Mitogen-activated protein kinase 4 (Homo sapiens) (UniProt P31152); details: Compound concentration 1000.0 nM
[13] = target: Fibroblast growth factor receptor 3 (Homo sapiens) (UniProt P22607); details: Compound concentration 1000.0 nM
[14] = test system: Receptor-type tyrosine-protein kinase FLT3 (Homo sapiens), P36888 [UNDEFINED MUTATION]; details: Compound concentration 1000.0 nM
[15] = target: Cyclin-G-associated kinase (Homo sapiens) (UniProt O14976); details: Compound concentration 1000.0 nM
[16] = target: Mitogen-activated protein kinase 9 (Homo sapiens) (UniProt P45984); details: Compound concentration 1000.0 nM
[17] = target: Hepatocyte growth factor receptor (Homo sapiens) (UniProt P08581); details: Compound concentration 1000.0 nM
[18] = target: Serine/threonine-protein kinase 4 (Homo sapiens) (UniProt Q13043); details: Compound concentration 1000.0 nM
[19] = target: Cyclin-dependent kinase 17 (Homo sapiens) (UniProt Q00537); details: Compound concentration 1000.0 nM
[20] = target: Platelet-derived growth factor receptor beta (Homo sapiens) (UniProt P09619); details: Compound concentration 1000.0 nM
[21] = test system: Phosphatidylinositol 4,5-bisphosphate 3-kinase catalytic subunit alpha isoform (Homo sapiens), P42336 [E542K]; details: Compound concentration 1000.0 nM
[22] = test system: Phosphatidylinositol 4,5-bisphosphate 3-kinase catalytic subunit alpha isoform (Homo sapiens), P42336 [E545A]; details: Compound concentration 1000.0 nM
[23] = test system: Phosphatidylinositol 4,5-bisphosphate 3-kinase catalytic subunit alpha isoform (Homo sapiens), P42336 [E545K]; details: Compound concentration 1000.0 nM
[24] = test system: Phosphatidylinositol 4,5-bisphosphate 3-kinase catalytic subunit alpha isoform (Homo sapiens), P42336 [M1043I]; details: Compound concentration 1000.0 nM
[25] = test system: Phosphatidylinositol 4,5-bisphosphate 3-kinase catalytic subunit alpha isoform (Homo sapiens), P42336 [Q546K]; details: Compound concentration 1000.0 nM
[26] = target: Serine/threonine-protein kinase D2 (Homo sapiens) (UniProt Q9BZL6); details: Compound concentration 1000.0 nM
[27] = target: Protein-tyrosine kinase 2-beta (Homo sapiens) (UniProt Q14289); details: Compound concentration 1000.0 nM
[28] = target: Serine/threonine-protein kinase SBK1 (Homo sapiens) (UniProt Q52WX2); details: Compound concentration 1000.0 nM
Sequence of Serine/threonine-protein kinase SBK1 (Homo sapiens) (Q52WX2 whole entry): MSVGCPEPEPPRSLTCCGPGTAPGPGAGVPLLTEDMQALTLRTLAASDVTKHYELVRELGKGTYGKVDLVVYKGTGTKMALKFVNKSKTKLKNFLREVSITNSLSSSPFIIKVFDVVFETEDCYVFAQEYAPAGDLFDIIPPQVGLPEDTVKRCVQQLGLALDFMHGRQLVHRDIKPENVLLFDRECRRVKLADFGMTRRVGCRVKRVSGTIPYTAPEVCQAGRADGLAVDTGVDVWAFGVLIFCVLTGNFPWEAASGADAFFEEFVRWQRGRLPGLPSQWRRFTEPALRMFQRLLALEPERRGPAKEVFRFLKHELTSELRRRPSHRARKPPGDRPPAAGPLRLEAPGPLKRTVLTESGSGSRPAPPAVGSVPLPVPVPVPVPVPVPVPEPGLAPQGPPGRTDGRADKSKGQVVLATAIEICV

[29] = target: Serine/threonine-protein kinase SIK1 (Homo sapiens) (UniProt P57059); details: Compound concentration 1000.0 nM
[30] = target: Tyrosine-protein kinase SYK (Homo sapiens) (UniProt P43405); details: Compound concentration 1000.0 nM
[31] = target: Angiopoietin-1 receptor (Homo sapiens) (UniProt Q02763); details: Compound concentration 1000.0 nM
[32] = target: TRAF2 and NCK-interacting protein kinase (Homo sapiens) (UniProt Q9UKE5); details: Compound concentration 1000.0 nM
[33] = target: Activated CDC42 kinase 1 (Homo sapiens) (UniProt Q07912); details: Compound concentration 1000.0 nM
Sequence of Activated CDC42 kinase 1 (Homo sapiens) (Q07912 whole entry, looked up): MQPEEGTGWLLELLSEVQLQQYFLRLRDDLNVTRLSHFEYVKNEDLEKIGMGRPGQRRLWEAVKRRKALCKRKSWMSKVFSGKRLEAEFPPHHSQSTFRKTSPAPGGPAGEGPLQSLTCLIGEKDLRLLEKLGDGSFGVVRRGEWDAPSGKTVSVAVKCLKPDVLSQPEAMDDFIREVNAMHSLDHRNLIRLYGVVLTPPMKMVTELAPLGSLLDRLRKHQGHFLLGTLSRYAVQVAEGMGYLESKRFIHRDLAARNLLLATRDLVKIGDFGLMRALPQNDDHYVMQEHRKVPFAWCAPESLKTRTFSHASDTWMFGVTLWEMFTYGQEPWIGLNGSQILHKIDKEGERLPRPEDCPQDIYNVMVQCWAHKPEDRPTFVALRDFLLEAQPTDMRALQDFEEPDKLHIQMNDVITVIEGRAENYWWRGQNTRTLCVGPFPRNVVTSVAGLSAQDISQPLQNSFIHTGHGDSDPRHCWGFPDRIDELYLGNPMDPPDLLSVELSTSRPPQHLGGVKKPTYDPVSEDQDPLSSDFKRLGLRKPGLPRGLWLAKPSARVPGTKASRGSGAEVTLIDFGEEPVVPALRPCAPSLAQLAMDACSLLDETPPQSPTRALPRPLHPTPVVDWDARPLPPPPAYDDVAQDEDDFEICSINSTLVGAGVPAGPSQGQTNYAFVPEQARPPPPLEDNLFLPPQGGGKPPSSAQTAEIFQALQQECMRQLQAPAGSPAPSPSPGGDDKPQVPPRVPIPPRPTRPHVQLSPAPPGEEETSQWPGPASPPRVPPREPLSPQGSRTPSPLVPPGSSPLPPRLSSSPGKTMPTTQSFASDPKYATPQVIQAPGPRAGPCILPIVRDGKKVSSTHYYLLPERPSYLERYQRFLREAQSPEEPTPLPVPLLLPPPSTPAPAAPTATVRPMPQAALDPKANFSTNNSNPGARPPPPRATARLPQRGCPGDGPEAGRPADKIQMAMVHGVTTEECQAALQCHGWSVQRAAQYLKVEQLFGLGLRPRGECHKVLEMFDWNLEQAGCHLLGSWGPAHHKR

[34] = target: Dual specificity protein kinase TTK (Homo sapiens) (UniProt P33981); details: Compound concentration 1000.0 nM
[35] = target: Serine/threonine-protein kinase ULK1 (Homo sapiens) (UniProt O75385); details: Compound concentration 1000.0 nM
[36] = target: Vascular endothelial growth factor receptor 2 (Homo sapiens) (UniProt P35968); details: Compound concentration 1000.0 nM
[37] = target: Serine/threonine-protein kinase 32A (Homo sapiens) (UniProt Q8WU08); details: Compound concentration 1000.0 nM
[38] = target: Tyrosine-protein kinase Yes (Homo sapiens) (UniProt P07947); details: Compound concentration 1000.0 nM
[39] = target: Serine/threonine-protein kinase 25 (Homo sapiens) (UniProt O00506); details: Compound concentration 1000.0 nM
[40] = target: 5-hydroxytryptamine receptor 1D (Homo sapiens) (UniProt P28221); details: Compound concentration 10.0 uM
[41] = target: 5-hydroxytryptamine receptor 6 (Homo sapiens) (UniProt P50406); details: Compound concentration 10.0 uM
Sequence of 5-hydroxytryptamine receptor 6 (Homo sapiens) (P50406 whole entry): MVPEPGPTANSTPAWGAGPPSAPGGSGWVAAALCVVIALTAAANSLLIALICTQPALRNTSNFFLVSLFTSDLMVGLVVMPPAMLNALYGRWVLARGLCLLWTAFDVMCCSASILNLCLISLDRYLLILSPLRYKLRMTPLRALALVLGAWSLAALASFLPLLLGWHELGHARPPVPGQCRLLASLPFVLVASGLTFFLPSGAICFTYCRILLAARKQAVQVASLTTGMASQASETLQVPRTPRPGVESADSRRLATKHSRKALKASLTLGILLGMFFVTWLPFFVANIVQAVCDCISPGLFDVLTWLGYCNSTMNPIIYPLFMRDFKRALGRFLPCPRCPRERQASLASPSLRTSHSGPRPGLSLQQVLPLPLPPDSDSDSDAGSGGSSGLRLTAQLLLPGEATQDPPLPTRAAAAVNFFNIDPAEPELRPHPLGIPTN

[42] = target: Sodium-dependent serotonin transporter (Homo sapiens) (UniProt P31645); details: Compound concentration 10.0 uM
Sequence of Sodium-dependent serotonin transporter (Homo sapiens) (P31645 whole entry, looked up): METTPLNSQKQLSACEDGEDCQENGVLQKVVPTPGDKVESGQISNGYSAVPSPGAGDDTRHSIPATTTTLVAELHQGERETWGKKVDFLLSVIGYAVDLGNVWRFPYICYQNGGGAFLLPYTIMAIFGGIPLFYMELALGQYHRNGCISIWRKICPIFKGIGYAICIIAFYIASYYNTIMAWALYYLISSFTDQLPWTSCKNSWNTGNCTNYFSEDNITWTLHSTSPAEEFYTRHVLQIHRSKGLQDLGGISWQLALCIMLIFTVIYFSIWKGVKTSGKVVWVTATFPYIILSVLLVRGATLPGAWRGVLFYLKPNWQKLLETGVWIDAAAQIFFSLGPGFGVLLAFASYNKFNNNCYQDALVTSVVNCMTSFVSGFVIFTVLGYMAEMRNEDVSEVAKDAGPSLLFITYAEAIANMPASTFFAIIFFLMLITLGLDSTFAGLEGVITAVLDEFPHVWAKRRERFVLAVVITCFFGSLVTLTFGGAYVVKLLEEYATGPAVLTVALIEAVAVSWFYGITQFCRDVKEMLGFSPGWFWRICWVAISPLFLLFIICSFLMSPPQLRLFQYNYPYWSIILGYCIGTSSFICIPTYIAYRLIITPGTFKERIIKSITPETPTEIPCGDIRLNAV

[43] = target: Muscarinic acetylcholine receptor M4 (Homo sapiens) (UniProt P08173); details: Compound concentration 10.0 uM
[44] = target: Muscarinic acetylcholine receptor M5 (Homo sapiens) (UniProt P08912); details: Compound concentration 10.0 uM
Sequence of Muscarinic acetylcholine receptor M5 (Homo sapiens) (P08912 whole entry): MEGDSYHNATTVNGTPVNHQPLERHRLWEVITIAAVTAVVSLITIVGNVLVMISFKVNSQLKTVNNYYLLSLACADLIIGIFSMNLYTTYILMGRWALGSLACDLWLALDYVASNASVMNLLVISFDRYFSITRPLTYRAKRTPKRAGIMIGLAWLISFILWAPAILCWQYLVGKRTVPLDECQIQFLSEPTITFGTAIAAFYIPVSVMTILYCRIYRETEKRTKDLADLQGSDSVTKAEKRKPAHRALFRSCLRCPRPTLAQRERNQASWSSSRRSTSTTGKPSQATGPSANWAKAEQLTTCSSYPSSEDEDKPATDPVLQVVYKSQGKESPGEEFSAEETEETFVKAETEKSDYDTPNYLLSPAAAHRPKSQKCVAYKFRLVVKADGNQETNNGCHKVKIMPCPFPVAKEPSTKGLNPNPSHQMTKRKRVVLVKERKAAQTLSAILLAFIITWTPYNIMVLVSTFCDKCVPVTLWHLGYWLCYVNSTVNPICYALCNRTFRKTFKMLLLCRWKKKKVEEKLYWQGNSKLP

Sequence of RAC-gamma serine/threonine-protein kinase (Homo sapiens) (Q9Y243 whole entry): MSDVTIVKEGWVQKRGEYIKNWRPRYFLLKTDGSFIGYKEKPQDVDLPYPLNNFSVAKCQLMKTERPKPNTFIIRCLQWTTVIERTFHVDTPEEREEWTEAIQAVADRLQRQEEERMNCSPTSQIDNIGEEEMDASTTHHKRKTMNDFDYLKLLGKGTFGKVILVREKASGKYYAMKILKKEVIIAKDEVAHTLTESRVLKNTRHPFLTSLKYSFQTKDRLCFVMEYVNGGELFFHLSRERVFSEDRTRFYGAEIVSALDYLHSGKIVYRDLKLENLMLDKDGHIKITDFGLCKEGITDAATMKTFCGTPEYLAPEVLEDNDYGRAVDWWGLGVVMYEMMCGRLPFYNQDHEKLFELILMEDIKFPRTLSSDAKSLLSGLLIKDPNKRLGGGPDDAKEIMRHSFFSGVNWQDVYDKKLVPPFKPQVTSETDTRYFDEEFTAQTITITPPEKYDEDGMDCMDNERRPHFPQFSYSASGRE

N#Cc1ccc(Nc2ccc3[nH]c(=O)[nH]c3c2)c(Cl)c1
inactive: residual activity [1] 87% | residual activity [2] 93% | residual activity [3] 69% | residual activity [4] 100% | residual activity [5] 100% | residual activity [6] 100% | residual activity [7] 100% | residual activity [8] 62% | residual activity [9] 100% | residual activity [10] 100% | residual activity [11] 86% | residual activity [12] 100% | residual activity [13] 100% | residual activity [14] 100% | residual activity [15] 100% | residual activity [16] 100% | residual activity [17] 94% | residual activity [18] 100% | residual activity [19] 100% | residual activity [20] 100% | residual activity [21] 70% | residual activity [22] 100% | residual activity [23] 79% | residual activity [24] 100% | residual activity [25] 93% | residual activity [26] 100% | residual activity [27] 100% | residual activity [28] 93% | residual activity [29] 100% | residual activity [30] 100% | residual activity [31] 85% | residual activity [32] 99% | residual activity [33] 90% | residual activity [34] 88% | residual activity [35] 81% | residual activity [36] 99% | residual activity [37] 81% | residual activity [38] 100% | residual activity [39] 100% | inhibition [40] 3.68% | inhibition [41] -1.18% | inhibition [42] 21.1% | inhibition [43] 11.6% | inhibition [44] 12.6%

O=C1CCc2cc(Nc3cc(OC4CCOCC4)c([N+](=O)[O-])cc3Cl)ccc2N1
inactive: residual activity [1] 79% | residual activity [2] 79% | residual activity [3] 94% | residual activity [4] 100% | residual activity [5] 69% | residual activity [6] 100% | residual activity [7] 90% | residual activity [8] 65% | residual activity [9] 100% | residual activity [10] 100% | residual activity [11] 83% | residual activity [12] 100% | residual activity [13] 100% | residual activity [14] 78% | residual activity [15] 100% | residual activity [16] 86% | residual activity [17] 80% | residual activity [18] 100% | residual activity [19] 91% | residual activity [20] 97% | residual activity [21] 71% | residual activity [22] 100% | residual activity [23] 79% | residual activity [24] 94% | residual activity [25] 70% | residual activity [26] 85% | residual activity [27] 83% | residual activity [28] 97% | residual activity [29] 96% | residual activity [30] 100% | residual activity [31] 76% | residual activity [32] 100% | residual activity [33] 100% | residual activity [34] 87% | residual activity [35] 87% | residual activity [36] 100% | residual activity [37] 90% | residual activity [38] 96% | residual activity [39] 100% | inhibition [40] 18.6% | inhibition [41] -2.48% | inhibition [42] 23.5% | inhibition [43] 48.7% | inhibition [44] 12.6%
